# Source: EP4790066A1, “GLP-1R/GIPR/GCGR TRIPLE AGONIST ANALOGUE AND USE THEREOF” (Shenzhen Bay Laboratory, priority 2023, dated 2025)
# *1 amine or outer side, *2 acyl side, *3 side chain or, on linkers, in order; H or OH if unused. Where a SMILES comes first, the peptide text is derived from it. Bridges are numbered along the chain shown (N, C = ends). [ ]: non-standard residue; d: D form. X1 = O=C(O)CCCCCCCCCCCCCCCCCCC(=O)N[C@@H](CCCCNC(=O)COCCOCCNC(=O)COCCOCCNC(=O)CCC(=O)N(CCNC(=O)C[*:1])CCNC(=O)C[*:2])C(=O)O; Phe(2-F) = N[C@@H](Cc1ccccc1F)C(=O)O; Iva = CC[C@](C)(N)C(=O)O; Aib = CC(C)(N)C(=O)O
# Experiments:
# in vivo [1] = experiment: in vivo; design: species or system adult male cynomolgus monkeys; conditions: male, cynomolgus monkey, 0.2 mg/kg
# Protocol: The pharmacokinetic behavior of TG52 in non-rodents was tested. The specific steps are as follows:
# The target peptide derivative TG52 to be tested was administered to adult male cynomolgus monkeys via subcutaneous and intravenous injections (0.2 mg/kg, with PBS as the drug vehicle) as a single dose, respectively. Whole blood samples were collected from the jugular vein or other appropriate vein at the following time points after administration: for SC, 0 min, 30 min, 1 h, 3 h, 7 h, 24 h, 48 h, 72 h, 120 h, 168 h, 216 h, and 264 h; for IV, 0 min, 5 min, 30 min, 1 h, 3 h, 7 h, 24 h, 48 h, 72 h, 120 h, 168 h, 216 h, and 264 h. 0.2 mL of blood was collected and transferred into a labeled EDTA-K2 anticoagulant tube. The tube was gently inverted to ensure thorough mixing of the anticoagulant (EDTA-K2) with the blood and immediately placed on wet ice. Plasma separation was performed as soon as possible by centrifugation under the following conditions: 4°C, 6800xg, for 6 min. The plasma samples were stored in a refrigerator at no higher than -20°C and used for analysis when needed. Analysis of the drug content in the blood samples was performed using the analytical method described above. Table 5C: Pharmacokinetic parameters of TG52 in cynomolgus monkeys
# in vivo [2] = experiment: in vivo; design: species or system male SD rats; conditions: rat
# Protocol: The pharmacokinetic behavior of target peptide derivatives (or polypeptide derivatives) prepared in Example 1 and Example 2, i.e., TG1-TG94 in rodents was tested. The specific steps are as follows:
# The target peptide derivatives (TG1-TG94) to be tested were administered to male SD rats via subcutaneous injection (SC, 3 mg/kg; drug vehicle: PBS, concentration: 1.5 mg/mL; administration volume: 2 mL) and intravenous injection (IV, 1 mg/kg; drug vehicle: PBS, concentration: 0.5 mg/mL; administration volume: 2 mL) as a single dose, respectively. Whole blood samples were collected from the jugular vein or other appropriate vein at the following time points after administration: for SC, 15 min, 30 min, 1 h, 2 h, 4 h, 6 h, 8 h, 24 h, 48 h, 72 h, 96 h, 120 h, and 168 h; for IV, 5 min, 15 min, 30 min, 1 h, 2 h, 4 h, 8 h, 24 h, 48 h, 72 h, 96 h, 120 h, and 168 h. 0.2 mL of blood was collected and transferred into a labeled EDTA-K2 anticoagulant tube. The tube was gently inverted to ensure thorough mixing of the anticoagulant (EDTA-K2) with the blood and immediately placed on wet ice. Plasma separation was performed as soon as possible by centrifugation under the following conditions: 4°C, 6800xg, for 6 min. The plasma samples were stored in a refrigerator at no higher than -20°C and used for analysis when needed.
# Under the condition of yellow light in an ice-water bath, except for blank samples, 300 µL of precipitant containing an internal standard was added to a 96-well plate containing 20 µL of standard curve sample, quality control sample, or unknown sample; 300 µL of acetonitrile was added to the blank sample. The mixture was vortexed, mixed well, and then centrifuged. 150 µL of the supernatant after centrifugation was transferred to a new 96-well plate, and 150 µL of ultrapure water was added and mixed well. The above samples were subjected to quantitative analysis using LC-MS analysis with XB-C18 (2.1 * 100 mm, 3 µm) chromatography for gradient elution. The mobile phases used were: mobile phase A = 0.1% formic acid-water; mobile phase B = acetonitrile. Phoenix WinNonlin software was used to calculate the pharmacokinetic parameters. […] Table 5A: Pharmacokinetic parameters of target peptide derivatives
# GCGR = target: T1, GCGR (Homo sapiens, UniProt P47871); experiment: cAMP method (HTRF cAMP detection kit), HEK293/pGM-CREB-L-Luc/GCG pool; assay type: cell-based; conditions: read-out: EC50 (pM) for each receptor GCGR
# T1 construct: expressed in transfected cells
# T1 sequence (P47871 26-477, species assumed): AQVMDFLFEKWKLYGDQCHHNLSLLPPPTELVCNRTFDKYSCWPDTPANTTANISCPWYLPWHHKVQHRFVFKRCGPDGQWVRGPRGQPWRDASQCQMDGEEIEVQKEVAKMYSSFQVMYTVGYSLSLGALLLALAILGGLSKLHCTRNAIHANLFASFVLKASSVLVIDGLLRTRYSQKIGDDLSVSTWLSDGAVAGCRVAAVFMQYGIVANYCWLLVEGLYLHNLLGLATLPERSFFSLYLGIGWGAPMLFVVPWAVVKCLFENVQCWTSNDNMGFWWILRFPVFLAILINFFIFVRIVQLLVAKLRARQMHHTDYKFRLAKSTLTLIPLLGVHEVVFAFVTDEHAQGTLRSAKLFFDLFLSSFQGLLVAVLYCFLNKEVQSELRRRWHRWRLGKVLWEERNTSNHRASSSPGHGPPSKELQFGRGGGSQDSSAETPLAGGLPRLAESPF
smiles,measurement,setting,value
CC[C@H](C)[C@@H]1NC(=O)[C@H](Cc2ccccc2)NC(=O)[C@@H](NC(=O)C(C)(C)NC(=O)[C@H](CCC(N)=O)NC(=O)[C@H](C)NC(=O)[C@H](CCCCNC(C)=O)NC(=O)[C@H](CCCCN)NC(=O)[C@H](CC(=O)O)NC(=O)[C@H](CC(C)C)NC(=O)[C@](C)(CC)NC(=O)[C@@H](NC(=O)[C@H](CO)NC(=O)[C@H](Cc2ccc(O)cc2)NC(=O)[C@H](CC(=O)O)NC(=O)[C@H](CO)NC(=O)[C@@H](NC(=O)[C@H](Cc2ccccc2F)NC(=O)[C@@H](NC(=O)CNC(=O)[C@H](CCC(N)=O)NC(=O)C(C)(C)NC(=O)[C@@H](N)Cc2ccc(O)cc2)[C@@H](C)O)[C@@H](C)O)[C@@H](C)CC)CSCC(=O)NCCN(C(=O)CCC(=O)NCCOCCOCC(=O)NCCOCCOCC(=O)NCCCC[C@H](NC(=O)CCCCCCCCCCCCCCCCCCC(=O)O)C(=O)O)CCNC(=O)CSC[C@@H](C(=O)NCC(=O)NCC(=O)N2CCC[C@H]2C(=O)N[C@@H](CO)C(=O)N[C@@H](CO)C(=O)NCC(=O)N[C@@H](C)C(=O)N2CCC[C@H]2C(=O)N2CCC[C@H]2C(=O)N2CCC[C@H]2C(=O)N[C@@H](CO)C(N)=O)NC(=O)[C@H](CC(C)C)NC(=O)[C@H](CC(C)C)NC(=O)[C@H](Cc2ccc(O)cc2)NC(=O)[C@H](CCC(=O)O)NC1=O [TG52] (H-Y[Aib]QGT[Phe(2-F)]TSDYSI[Iva]LDKK(Ac)AQ[Aib]CFIEYLLCGGPSSGAPPPS-NH2; linker 21-28 via X1),AUC(0-inf),in vivo [1]; iv,302 µg·h/mL
same,AUC(0-t),in vivo [1]; iv,278 µg·h/mL
same,Vd,in vivo [1]; iv,0.0626 L/kg
same,clearance,in vivo [1]; iv,0.666 mL/h/kg
same,half-life,in vivo [1]; iv,88.3 h
same,AUC(0-t),in vivo [1]; sc,199 µg·h/mL
same,Cmax,in vivo [1]; sc,1760 ng/mL
same,Tmax,in vivo [1]; sc,18.3 h
same,bioavailability,in vivo [1]; sc,75.7%
same,half-life,in vivo [1]; sc,97.2 h
same,AUC(0-inf),"in vivo [2]; male, SD, iv, 1 mg/kg",289 µg·h/mL
same,AUC(0-t),"in vivo [2]; male, SD, iv, 1 mg/kg",265 µg·h/mL
same,MRT,"in vivo [2]; male, SD, iv, 1 mg/kg",26.5 h
same,Vd,"in vivo [2]; male, SD, iv, 1 mg/kg",0.092 L/kg
same,clearance,"in vivo [2]; male, SD, iv, 1 mg/kg",3.48 mL/h/kg
same,half-life,"in vivo [2]; male, SD, iv, 1 mg/kg",21.5 h
same,bioavailability,"in vivo [2]; male, SD, sc",50.9%
same,AUC(0-inf),"in vivo [2]; male, SD, sc, 3 mg/kg",570 µg·h/mL
same,AUC(0-t),"in vivo [2]; male, SD, sc, 3 mg/kg",410 µg·h/mL
same,CL/F,"in vivo [2]; male, SD, sc, 3 mg/kg",5.26 mL/h/kg
same,Cmax,"in vivo [2]; male, SD, sc, 3 mg/kg",8210 ng/mL
same,MRT,"in vivo [2]; male, SD, sc, 3 mg/kg",42.8 h
same,Tmax,"in vivo [2]; male, SD, sc, 3 mg/kg",24 h
same,half-life,"in vivo [2]; male, SD, sc, 3 mg/kg",26.4 h
same,AUC0-t /AUC0-inf,"in vivo [2]; iv, 1 mg/kg",0.918
same,Kel,"in vivo [2]; iv, 1 mg/kg",0.0323 h⁻¹
same,AUC0-t /AUC0-inf,"in vivo [2]; sc, 3 mg/kg",0.834
same,Vz/F,"in vivo [2]; sc, 3 mg/kg",0.200 L/kg
same,EC50,GCGR,8.8 pM
